This is an account of results in patent publication US12240862B2, “Inhibitors of peptidylarginine deiminases” (Gilead Sciences, Inc., priority 2020, dated 2025).

Broadly, the IC50 is the concentration at which inhibition is half-maximal.

For this assay, the target named is T1, human PAD4 (Homo sapiens, UniProt Q9UM07).
T1 construct: human PAD4 (NM_012387), A2P663, was PCR amplified; His-SUMO (N, cleaved yes); made in house; host or cells: E. coli BL21(DE3)
T1 sequence (Q9UM07 2-663): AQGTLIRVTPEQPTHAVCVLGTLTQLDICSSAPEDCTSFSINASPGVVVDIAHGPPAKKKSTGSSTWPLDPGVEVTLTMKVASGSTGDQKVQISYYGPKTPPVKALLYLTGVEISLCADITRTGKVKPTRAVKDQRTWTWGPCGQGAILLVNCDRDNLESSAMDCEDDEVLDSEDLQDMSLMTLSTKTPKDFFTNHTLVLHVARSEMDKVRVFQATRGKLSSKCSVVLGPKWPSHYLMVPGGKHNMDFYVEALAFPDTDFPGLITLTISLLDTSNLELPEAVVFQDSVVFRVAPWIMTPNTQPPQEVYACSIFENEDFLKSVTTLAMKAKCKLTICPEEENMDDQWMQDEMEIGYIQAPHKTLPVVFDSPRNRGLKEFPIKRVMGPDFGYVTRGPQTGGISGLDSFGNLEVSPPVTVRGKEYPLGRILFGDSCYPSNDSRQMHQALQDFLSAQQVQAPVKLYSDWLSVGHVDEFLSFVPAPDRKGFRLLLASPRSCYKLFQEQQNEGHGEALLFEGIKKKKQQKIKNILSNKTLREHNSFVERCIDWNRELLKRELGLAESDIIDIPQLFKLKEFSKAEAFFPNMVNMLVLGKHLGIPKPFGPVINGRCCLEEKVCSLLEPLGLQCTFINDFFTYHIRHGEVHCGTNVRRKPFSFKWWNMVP
Kind of assay: In vitro PAD4 BAEE biochemical assay. The conditions noted are these: human PAD4, BAEE substrate; 5 nM PAD4, 2 mM calcium chloride, 3 mM BAEE; geometric mean of multiple experiments. Put shortly:
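Ammonia generated from BAEE serves as the readout, measured by o-phthalaldehyde after EDTA termination. Final conditions: 5 nM human PAD4 (SUMO tag cleaved), 2 mM CaCl2, 3 mM BAEE, pH 7.6 MOPS buffer, 25 °C for 2 h following a 30-min compound preincubation.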
Regarding `CCc1ccc2cc(-c3nc4cc(C(=O)N5CCC[C@@H](N)C5)cc(OC)n4c3C)n(CC3CC3)c2n1` [Example 613, [(3~{R})-3-aminopiperidin-1-yl]-[2-[1-(cyclopropylmethyl)-6-ethylpyrrolo[2,3-b]pyridin-2-yl]-5-methoxy-3-methylimidazo [1,2-a]pyridin-7-yl] methanone], the IC50 is 0.302 µM.

As for `COc1cc(C(=O)N2CCC[C@@H](N)C2)cc2nc(-c3cc4ccc([C@@H](C)NC(=O)c5ccccc5)nc4n3CC3CC3)c(C3CC3)n12` [Example 141, ~{N}-[(1~{R})-1-[2-[7-[(3~{R})-3-aminopiperidine-1-carbonyl]-3-cyclopropyl-5-methoxyimidazo [1,2-a]pyridin-2-yl]-1-(cyclopropylmethyl)pyrrolo [2,3-b]pyridin-6-yl]ethyl] benzamide], the IC50 worked out at 0.187 µM.

Regarding `COc1cc(C(=O)N2[C@H]3CC[C@@H]2[C@H](N)C3)cc2nc(-c3cc4ccc([C@@H](C)NC(=O)N5CC(C#N)C5)nc4n3CC3CC3)c(C)n12` [Example 234, ~{N}-[(1~{R})-1-[2-[7-[(1~{R},2~{R},4~{S})-2-amino-7-azabicyclo[2.2.1]heptane-7-carbonyl]-5-methoxy-3-methylimidazo [1,2-a]pyridin-2-yl]-1-(cyclopropylmethyl)pyrrolo [2,3-b]pyridin-6-yl]ethyl]-3-cyanoazetidine-1-carboxamide], the IC50 stood at 0.149 µM.

For the compound `COc1cc(C(=O)N2[C@H]3CC[C@@H]2[C@H](N)C3)cc2nc(-c3cc4ccc([C@@H](C)NC(=O)c5ccon5)nc4n3CC3CC3)c(C)n12` [Example 104, ~{N}-[(1~{R})-1-[2-[7-[(1~{R},2~{R},4~{S})-2-amino-7-azabicyclo[2.2.1]heptane-7-carbonyl]-5-methoxy-3-methylimidazo [1,2-a]pyridin-2-yl]-1-(cyclopropylmethyl)pyrrolo [2,3-b]pyridin-6-yl]ethyl]-1,2-oxazole-3-carboxamide], the IC50 came to 0.0883 µM.

Consider `COc1cc(C(=O)N2[C@H]3CC[C@@H]2[C@@H]2NCCO[C@@H]2C3)cc2nc(-c3cc4ccc([C@@H](C)NC(=O)C56CC(F)(C5)C6)nc4n3CC3CC3)c(C)n12` [Example 13, ~{N}-[(1~{R})-1-[1-(cyclopropylmethyl)-2-[5-methoxy-3-methyl-7-[(1~{R},2~{S},7~{R}, 9~{S})-6-oxa-3,12-diazatricyclo [7.2.1.0^{2,7}]dodecane-12-carbonyl]imidazo[1,2-a]pyridin-2-yl]pyrrolo[2,3-b]pyridin-6-yl]ethyl]-3-fluorobicyclo[1.1.1] pentane-1-carboxamide], for which the IC50 worked out at 1.78 µM.

With `CCc1ccc2cc(-c3nc4cc(C(=O)N5CCCC(NCCO)C5)cc(OC)n4c3C)n(CC3CC3)c2n1` (centres unmarked) [Example 581, [2-[1-(cyclopropylmethyl)-6-ethylpyrrolo[2,3-b]pyridin-2-yl]-5-methoxy-3-methylimidazo[1,2-a]pyridin-7-yl]-[3-(2-hydroxyethylamino)piperidin-1-yl]methanone], the IC50 was determined as 23 µM.

Turning to `COc1cc(C(=O)N2[C@H]3CC[C@@H]2[C@H](N)C3)cc2nc(-c3cc4ccc([C@@H](C)NC(=O)N5CCO[C@@H](C)C5)nc4n3CC3CC3)c(C)n12` [Example 201, (2~{S})-~{N}-[(1~{R})-1-[2-[7-[(1~{R},2~{R},4~{S})-2-amino-7-azabicyclo[2.2.1]heptane-7-carbonyl]-5-methoxy-3-methylimidazo [1,2-a]pyridin-2-yl]-1-(cyclopropylmethyl)pyrrolo [2,3-b]pyridin-6-yl]ethyl]-2-methylmorpholine-4-carboxamide], the IC50 was 0.0174 µM.

For the compound `COCc1nn(C)cc1C(=O)N[C@H](C)c1ccc2cc(-c3nc4cc(C(=O)N5[C@H]6CC[C@@H]5[C@H](N)C6)cc(OC)n4c3C)n(CC3CC3)c2n1` [Example 23, ~{N}-[(1~{R})-1-[2-[7-[(1~{R},2~{R},4~{S})-2-amino-7-azabicyclo [2.2.1]heptane-7-carbonyl]-5-methoxy-3-methylimidazo [1,2-a]pyridin-2-yl]-1-(cyclopropylmethyl)pyrrolo[2,3-b]pyridin-6-yl]ethyl]-3-(methoxymethyl)-1-methylpyrazole-4-carboxamide], the IC50 is 0.0613 µM.

As to `COc1cc(C(=O)N[C@H]2CNC[C@H](F)C2)cc2nc(-c3cc4ccc(N(C(F)F)S(C)(=O)=O)nc4n3CC3CC3)c(C)n12` [Example 306, 2-[1-(cyclopropylmethyl)-6-[difluoromethyl (methylsulfonyl)amino]pyrrolo[2,3-b]pyridin-2-yl]-~{N}-[(3~{R},5~{R})-5-fluoropiperidin-3-yl]-5-methoxy-3-methylimidazo [1,2-a]pyridine-7-carboxamide], the IC50 was 1.61 µM.

As to `COc1cc(C(=O)N2CCC[C@@H](N)[C@H]2C)cc2nc(-c3cc4ccc(N(C5CC5)S(C)(=O)=O)nc4n3CC3CC3)c(C)n12` [Example 479, ~{N}-[2-[7-[(2~{R}, 3~{R})-3-amino-2-methylpiperidine-1-carbonyl]-5-methoxy-3-methylimidazo[1,2-a]pyridin-2-yl]-1-(cyclopropylmethyl)pyrrolo [2,3-b]pyridin-6-yl]-~{N}-cyclopropylmethane-sulfonamide], the IC50 turned out to be 0.181 µM.

With “[(1~{R},2~{R},4~{S})-2- amino-7-azabicyclo [2.2.1]heptan-7-yl]-[2-[1- (cyclopropylmethyl)-6-(6- hydroxy-2-methylpyridin- 3-yl)pyrrolo[2,3-b] pyridin-2-yl]-5-methoxy-3- methylimidazo[1,2-a] pyridin-7-yl]methanone [Example 563]”, the IC50 turned out to be 0.106 µM.

For `COc1cc(C(=O)N2[C@H]3CC[C@@H]2[C@H](N)C3)cc2nc(-c3cc4ccc([C@@H](C)NC(=O)CCC(=O)O)nc4n3CC3CC3)c(C)n12` [Example 163, 4-[[(1~{R})-1-[2-[7-[(1~{R},2~{R},4~{S})-2-amino-7-azabicyclo[2.2.1]heptane-7-carbonyl]-5-methoxy-3-methylimidazo [1,2-a]pyridin-2-yl]-1-(cyclopropylmethyl)pyrrolo [2,3-b]pyridin-6-yl]ethyl]amino]-4-oxobutanoic acid], the IC50 was determined as 0.0191 µM.

With `COc1cc(C(=O)N2[C@H]3CC[C@@H]2[C@H](N)C3)cc2nc(-c3cc4ccc([C@@H](C)NC(=O)c5ccccc5C(F)F)nc4n3CC3CC3)c(C)n12` [Example 11, ~{N}-[(1~{R})-1-[2-[7-[(1~{R},2~{R},4~{S})-2-amino-7-azabicyclo [2.2.1]heptane-7-carbonyl]-5-methoxy-3-methylimidazo [1,2-a]pyridin-2-yl]-1-(cyclopropylmethyl)pyrrolo[2,3-b]pyridin-6-yl]ethyl]-2-(difluoromethyl) benzamide], the IC50 came out at 0.253 µM.

In the case of `CCc1ccc2cc(-c3nc4cc(C(=O)N5CC6(CCCNC6)C5)cc(OC)n4c3C)n(CC3CC3)c2n1` [Example 594, [2-[1-(cyclopropylmethyl)-6-ethylpyrrolo[2,3-b]pyridin-2-yl]-5-methoxy-3-methylimidazo[1,2-a]pyridin-7-yl]-(2,8-diazaspiro[3.5]nonan-2-yl) methanone], the IC50 was determined as 1.7 µM.

As to `COc1cc(C(=O)N2CC[C@H]3CCCN[C@H]3C2)cc2nc(-c3cc4ccc([C@@H](C)NC(=O)C56CC(F)(C5)C6)nc4n3CC3CC3)c(C)n12` [Example 31, ~{N}-[(1~{R})-1-[2-[7-[(4~{a}~{R}, 8~{a}~{R})-2,3,4,4~{a},5,6,8,8~{a}-octahydro-1~{H}-1,7-naphthyridine-7-carbonyl]-5-methoxy-3-methylimidazo [1,2-a]pyridin-2-yl]-1-(cyclopropylmethyl)pyrrolo[2,3-b]pyridin-6-yl]ethyl]-3-fluorobicyclo[1.1.1] pentane-1-carboxamide], the IC50 is 0.487 µM.

`COc1cc(C(=O)N2[C@H]3CC[C@@H]2[C@H](N)C3)cc2nc(-c3cc4ccc([C@@H](C)NC(=O)c5ccnc(C(F)F)c5)nc4n3CC3CC3)c(C)n12` [Example 50, ~{N}-[(1~{R})-1-[2-[7-[(1~{R},2~{R},4~{S})-2-amino-7-azabicyclo[2.2.1]heptane-7-carbonyl]-5-methoxy-3-methylimidazo [1,2-a]pyridin-2-yl]-1-(cyclopropylmethyl)pyrrolo[2,3-b]pyridin-6-yl]ethyl]-2-(difluoromethyl)pyridine-4-carboxamide]: the IC50 came out at 0.0306 µM.

For the compound `COc1cc(C(=O)N2[C@H]3CC[C@@H]2[C@H](N)C3)cc2nc(-c3cc4ccc([C@@H](C)NC(=O)C5(O)CC5)nc4n3CC3CC3)c(C)n12` [Example 97, ~{N}-[(1~{R})-1-[2-[7-[(1~{R},2~{R},4~{S})-2-amino-7-azabicyclo[2.2.1]heptane-7-carbonyl]-5-methoxy-3-methylimidazo [1,2-a]pyridin-2-yl]-1-(cyclopropylmethyl)pyrrolo [2,3-b]pyridin-6-yl]ethyl]-1-hydroxycyclopropane-1-carboxamide], the IC50 worked out at 0.0306 µM.

In the case of `COc1cc(C(=O)N2[C@H]3CC[C@@H]2[C@H](N)C3)cc2nc(-c3cc4ccc(C5CCN(C(C)=O)C5)nc4n3CC3CC3)c(C)n12` (some centres unmarked) [Example 531], the IC50 was found to be 0.134 µM.

Consider `CCc1ccc2cc(-c3nc4cc(C(=O)N5CCC[C@@H](N)C5)cc(OC)n4c3C)n(CC3CC3)c2c1F` [Example 586, [(3~{R})-3-aminopiperidin-1-yl]-[2-[1-(cyclopropylmethyl)-6-ethyl-7-fluoroindol-2-yl]-5-methoxy-3-methylimidazo [1,2-a]pyridin-7-yl]methanone], for which the IC50 turned out to be 3.21 µM.

Take `COc1cc(C(=O)N2[C@H]3CC[C@@H]2[C@H](N)C3)cc2nc(-c3cc4ccc([C@@H](C)NC(=O)NC5(C)CC(F)(F)C5)nc4n3CC3CC3)c(C)n12` [Example 212, 1-[(1~{R})-1-[2-[7-[(1~{R},2~{R},4~{S})-2-amino-7-azabicyclo[2.2.1]heptane-7-carbonyl]-5-methoxy-3-methylimidazo [1,2-a]pyridin-2-yl]-1-(cyclopropylmethyl)pyrrolo [2,3-b]pyridin-6-yl]ethyl]-3-(3,3-difluoro-1-methylcyclobutyl)urea]: the IC50 was 0.0645 µM.
